Measured values from the NIST ThermoML archive (doi:10.1021/je700205n).

Conditions: Liquid

CCn1cc[n+](C)c1.O=S(=O)([N-]S(=O)(=O)C(F)(F)F)C(F)(F)F
mass density [kg/m3]
Conditions	293.15 K	303.15 K	313.15 K	323.15 K	333.15 K	343.15 K	353.15 K	393.15 K
100 kPa	1526	1514	1503	1493	1482	1472	1461	1424
1000 kPa	1526	1515	1504	1493	1483	1472	1462	1424
2000 kPa	1527	1516	1505	1494	1483	1473	1463	1425
3000 kPa	1528	1517	1506	1495	1484	1474	1464	1426
4000 kPa	1528	1517	1506	1496	1485	1475	1465	1427
5000 kPa	1529	1518	1507	1496	1486	1476	1466	1428
7500 kPa	1531	1520	1509	1498	1488	1478	1468	1431
10000 kPa	1533	1522	1511	1500	1490	1480	1470	1433
15000 kPa	1536	1525	1515	1504	1494	1484	1474	1438
20000 kPa	1540	1529	1518	1508	1498	1488	1478	1443
25000 kPa	1543	1532	1522	1512	1502	1492	1483	1448
30000 kPa	1547	1536	1526	1516	1506	1496	1487	1453

CCCCCCCCn1cc[n+](C)c1.O=S(=O)([N-]S(=O)(=O)C(F)(F)F)C(F)(F)F
mass density [kg/m3]
Conditions	293.15 K	303.15 K	313.15 K	323.15 K	333.15 K	343.15 K	353.15 K	393.15 K
100 kPa	1328	1315	1305	1296	1286	1278	1269	1236
1000 kPa	1328	1316	1306	1296	1287	1278	1270	1237
2000 kPa	1329	1317	1307	1297	1288	1279	1270	1238
3000 kPa	1330	1317	1307	1298	1289	1280	1271	1239
4000 kPa	1330	1318	1308	1299	1289	1281	1272	1240
5000 kPa	1331	1319	1309	1299	1290	1282	1273	1241
7500 kPa	1333	1321	1311	1301	1292	1284	1275	1243
10000 kPa	1334	1322	1312	1303	1294	1286	1277	1246
15000 kPa	1338	1326	1316	1307	1298	1290	1282	1251
20000 kPa	1341	1329	1320	1311	1302	1294	1286	1256
25000 kPa	1345	1333	1324	1315	1306	1298	1290	1261
30000 kPa	1348	1337	1327	1319	1310	1303	1294	1266
